# Source: US11028127B2, “Peptides capable of reactivating p53 mutants” (Yeda Research and Development Co. Ltd., priority 2013, dated 2021)
# Where no end group is shown, it is not given here. The star is where a group is joined. Myristoyl = CCCCCCCCCCCCCC(=O)*
# Test system: Mut-p53
# Test: Total activity score over combined assays (Table 8)
# Set-up: scale not given here
# Settings: for Activity Score: Table 10 summary of activity of the peptides tested; for AS (Activity Score): total score of Table 7; for PCR, activity score / Conformation, activity score: Table 8; for PCR, activity score: head span not shown; for Conformation, activity score: the 14 score columns c4-c17 stand under the heads Conformation, DNA binding, Viability, PCR
# From the text: Several alternative and complementary methods to screen lead peptide candidates for conformational and functional effects on Mut-p53 were employed. For increased penetration of peptide across cell membranes each peptide contains 3-6 Arginine residues either as part of its sequence or added either at its N-terminus or its C-terminus. […] In-vitro based assays for evaluation were first performed, such as ELISA for assessment of p53 conformation and sequence-specific DNA binding of p53.
Substance,Activity Score,AS (Activity Score),"PCR, activity score","Conformation, activity score"
pCAP320 (EPSHPRSRYPRTF),0,,,
pCAP87 (HANLHHT),37,37,,
pCAP282 (Myristoyl-RRPVAPDLRHTIHIPPER),43,,3,4
pCAP46 (ASWQALALYAAGW),34,34,,
pCAP114 (AISHHTR),0,0,,
pCAP240 (TEQHHYIPHRRR),3,,,
pCAP15 (THFSHHLKH),12,12,,
pCAP236 (RRRSTNTFLGEDFDQ),0,,,
pCAP209 (HTPHPPVARTSPLQTPRR),0,,,
pCAP306 (Myristoyl-RLIRIRILM),6,,,
pCAP62 (YELPHHAYPA),10,10,,
pCAP281 (Myristoyl-RDFILFIRRLGRR),3,,,
pCAP297 (HDFDPRYRDRR),0,,,
pCAP284 (Myristoyl-RHDTHNAHIRR),6,,,
pCAP143 (IPMNFTSHSLRQRRRRRRRRR),6,6,,
pCAP76 (GGGGGGGGGRRRRRRR),0,0,,
pCAP96 (GTVDHHA),0,0,,
pCAP247 (RRITEIRGRTGKTTLTYIED),6,,,
pCAP57 (LMSNAQY),8,8,,
pCAP101 (IRFILIR),3,3,,
pCAP308 (Myristoyl-RRICRFIRICRVR; cysteine pairing not given here),40,,6,
pCAP272 (RRPHNLHHD),0,,,
pCAP127 (SPPIRHH),3,3,,
pCAP119 (HSAHHTM),0,0,,
pCAP324 (SHDFPHREPRPERR),0,,,

Substance,Activity Score,AS (Activity Score),"PCR, activity score","Conformation, activity score"
pCAP147 (ATQHHYIKRRRRRRRRRRR),10,10,,
pCAP133 (SLLIGFGIIRSRRRRRRRR),10,10,,
pCAP227 (Myristoyl-RRKILFIRLMHNKH),67,,4,4
pCAP298 (RRIRDPLGNEHE),3,,,
pCAP102 (SSVHHRG),3,3,,
pCAP174 (HSTPHP),54,54,,
pCAP150 (IIRGNFLIGGRLRRRRRRRRR),26,26,,
pCAP146 (HANLHHTRRRRRRRRRRR),11,11,,
pCAP58 (SILPLFLIRRSG),5,5,,
pCAP203 (RRRHDSCHNQLQNYDHSTE),42,,4,
pCAP253 (TGKTFVKRHLTEFEKKYR),0,,,
pCAP268 (TPSYGHTPSHHRRR),12,,,3
pCAP38 (WTLSNYL),2,2,,
pCAP312 (RRPRIPDYIL),3,,,
pCAP9 (TIIHREDEDEIEW),17,17,,
pCAP19 (NPNTYVPHWMRQ),0,0,,
pCAP77 (SEYLCSSLDAAG),0,0,,
pCAP154 (LRCLLLLIGRVGRKKRRQRR),57,57,,
pCAP130 (EVTFRHSVVRRRRRRRRRRR),13,13,,
pCAP118 (SNHHHRHHTNTH),13,13,,
pCAP307 (HDPRIIRIR),2,,,
pCAP20 (HHPWTHHQRWS),13,13,,
pCAP63 (HNHHHSQHTPQH),9,9,,
pCAP305 (IREFDPRRIR),4,,,
pCAP225 (HTIHSISDFPEPPDRRRR),3,,,

Substance,Activity Score,AS (Activity Score),"PCR, activity score","Conformation, activity score"
pCAP48 (IPMNFTSHSLRQ),13,13,,
pCAP124 (VMVLFRILRGSM),2,2,,
pCAP66 (THFSHHLKGGGRRQRRRP),2,2,,
pCAP219 (SYRHYSDHWEDRRR),1,,,
pCAP65 (THFSHHLKHRRRRRRRRRR),17,17,,
pCAP220 (STTHPHPGTSAPEPATRRR),6,,,
pCAP217 (HSTPHPPQPPERRR),2,,,
pCAP74 (IRGRIIRRKKRRQRRRRGDR),6,6,,
pCAP149 (FPGHTIHRRRRRRRRRRR),13,13,,
pCAP24 (LRCLLLLIGRVG),23,23,,
pCAP299 (ILQPDFLIRPE),2,,,
pCAP311 (EIHTIHLLPERR),0,,,
pCAP224 (RRKSEPHSLSGGYQTGAD),2,,,
pCAP277 (DQPYPHRRIR),3,,,
pCAP67 (LHSKTLVLGGGRRRRGDR),2,2,,
pCAP122 (HSYSPYYTFRQH),5,5,,
pCAP94 (LRFIDYP),4,4,,
pCAP139 (MHPPDWYHHTPKRRRRRR),12,12,,
pCAP210 (DEFERYRRFSTSRRR),29,,6,3
pCAP177 (HFSHH),0,0,,
pCAP245 (NHITNGGEEDSDCSSRRRRL),8,,,
pCAP45 (HDTHNAHVG),0,0,,
pCAP259 (Myristoyl-RTLIGIIRSHHLTLIRR),25,,2,
pCAP112 (TTSHHPK),2,2,,
pCAP230 (RKRGKSYAFFVPPSESKERW),63,,6,3
